Common to all, as to type: cell-based, human
Assay [1] concerns Medalist fibroblasts. The assay is described as follows: VEGF protein secreted to the medium (ELISA). An excerpt: Skin were obtained from 26 Medalists with various complications and from 7 age-matched non-diabetic controls during post-mortem period. Primary fibroblast cultures were derived from human skin samples, sustained in DMEM (10-027, Cellgro Inc.) supplemented with 10% heat inactivated fetal bovine serum, over a period of 4 weeks, in a 6-well plate, with media supplementation every other day. Subsequently, as fibroblasts emerged from the primary explant, a brief trypsinization (0.25% Trypsin) was used to separate and further expand the cells in a 10 cm^2 plate. In all experiments fibroblasts were used between passages 2-5.
(§1) Fibroblasts with passage≦5 were grown and expanded in 10 cm plate with DMEM supplemented with 10% FBS. Cells were stimulated with the conditions and compounds as indicated after overnight starvation in DMEM with 0.1% BSA without FBS. Cells were lysed and protein amounts were measured with BCA kit (Bio-Rad, Hercules, Calif.). Protein lysates (20-30 μg) were separated by SDS-PAGE, transferred, blocked and detected as we described before (Park et al., Mol Cell Biol. 2013 August; 33(16):3227-41). The signal intensity was quantified using ImageJ software (SynGene, Frederick, Md.). For immune precipitation, tissue lysates were incubated with the appropriate antibodies followed by the addition of protein A/G Sepharose beads (Santa Cruz Biotechnology, Inc., Santa Cruz, Calif.). The precipitated proteins were subjected to SDS-PAGE followed by immunoblotting with the appropriate antibodies as described before (Park et al., Mol Cell Biol. 2013 August; 33(16):3227-41).
The transfection of siRNA was performed using the Ambion Silencer Select Validated siRNA kit for primary cells (Ambion by Life Technology, Carlsband, Calif.), in 60-70% confluent fibroblast. For evaluating insulin's effect on VEGF production, cells were washed twice with PBS, and starved overnight with DMEM containing 1% BSA. Insulin (100 nM) was added to each for additional 16 h. After incubation, media were collected for VEGF measurement by ELISA and the cell lysate were collected for measuring protein concentration.
Protein levels of VEGF in the medium were measured using Quantikine R&D System kit (Minneapolis, Minn.). This kit determines mainly VEGF165. Glycated hemoglobin (HbA1c) was determined by HPLC (Tosoh G7 and 2.2, Tokyo, Japan). Serum creatinine was determined by spectrophotometry. Urine albumin and creatinine were determined by turbidimetric methods. Serum C-peptide was determined by RIA (Beckman Coulter, Inc, Fullerton, Calif.).
A general note: In an ELISA, binding on a coated surface is turned into a signal by an enzyme label.

The test system of assay [2] is Medalist fibroblasts. The assay can be described thus: VEGF protein secreted to the medium (ELISA). The conditions noted are these: fibroblasts from Medalists compared to controls; 10 ng/ml TGF for 24 hours.
The test system of assay [3] is control fibroblasts. The assay is described as follows: VEGF mRNA by real-time PCR. As to conditions: fibroblasts from controls, 100 nM insulin. The procedure: (§2) Real-time PCR was performed to evaluate mRNA expressions of VEGF, PDGF-B, Fibronectin, and PKCδ in cultured fibroblast and mice granulation tissue as we described before (Geraldes et al., Nat Med. 2009 November; 15(11):1298-306). PCR primers and probes are detailed in Table A. Human 36B4 or 18S ribosomal RNA expressions as indicated were used for normalization.
On the technique in general: In qPCR the cycle at which signal appears reflects the starting amount.

The subject of assay [4] is Medalist fibroblasts. The assay can be described thus: VEGF mRNA by real-time PCR. As to conditions: fibroblasts from Medalists, 100 nM insulin. The procedure:
as §2

Assay [5] deals with control fibroblasts. The assay can be described thus: Scratch wound migration assay. The conditions noted are these: 10 ng/ml PDGF-BB or 100 nM insulin for 12 h. The procedure:
(§3) Scratch wound migration assay—100% Confluent starved Medalist or control fibroblasts wounded, followed by incubation with 10 ng/ml PDGF-BB or 100 nM insulin for 12 hours. Phase contrast images of wounded areas were taken at time 0, 4, 6, 8 and 12 hours after stimulation, and migration was determined as described before (Ito et al., Am J Physiol Lung Cell Mol Physiol. 2014 Jul. 1; 307(1):L94-105).

The test system of assay [6] is Medalist fibroblasts. The assay can be described thus: Scratch wound migration assay. As to conditions: 10 ng/ml PDGF-BB or 100 nM insulin for 12 h. The procedure: as §3
Assay [7] concerns control fibroblasts. The assay can be described thus: VEGF protein secreted to the medium (ELISA).
Assay [8] relates to control fibroblasts. The assay is described as follows: p-Tyr of insulin receptor beta subunit immunoblot. The conditions noted are these: controls, 100 nM insulin. The procedure: as §1
For assay [9], the system named is Medalist fibroblasts. The assay can be described thus: p-Tyr of insulin receptor beta subunit immunoblot. As to conditions: 100 nM insulin. The procedure: as §1
A general note: Immunoblotting shows a protein as a band on a membrane.

The subject of assay [10] is control fibroblasts. The assay is described as follows: IRS1 tyrosine phosphorylation immunoblot. As to conditions: fibroblasts of controls, 100 nM insulin. As for the experimental part: as §1
Assay [11] concerns Medalist fibroblasts. The assay is described as follows: IRS1 tyrosine phosphorylation immunoblot. The conditions noted are these: 100 nM insulin. As for the experimental part: as §1
Assay [12] concerns control fibroblasts. The assay is described as follows: p-AKT (Ser473) immunoblot. As to conditions: for p-AKT increase compared to untreated cells: 100 nM insulin or 10 ng/ml PDGF-BB for 10 minutes. As for the experimental part: as §1
Assay [13] deals with Medalist fibroblasts. The assay can be described thus: p-AKT (Ser473) immunoblot. As to conditions: for p-AKT increase compared to untreated cells: Medalist fibroblasts, 100 nM insulin or 10 ng/ml PDGF-BB for 10 minutes; for p-AKT increase: 100 nM insulin 10 minutes. The procedure:
as §1

Where [14] appears, read: fibroblasts of Medalists with CVD.
[15] abbreviates: fibroblasts of Medalists without CVD.

Consider `CN(C)CCCn1cc(C2=C(c3c[nH]c4ccccc34)C(=O)NC2=O)c2ccccc21` [GFX, 2[1-(3-dimethylaminopropyl)-1H-indol-3-yl]-3-(1H-indol-3-yl)-maleimide], for which the “fold increase in VEGF levels above basal” value in the assay on Medalist fibroblasts [1] (Medalist fibroblasts, inhibitor + 100 nM insulin (10 mM GFX or 3 uM rottlerin)) came to 4.74±0.94 fold; with Medalist fibroblasts [1] (Medalist fibroblasts, inhibitor alone, no insulin (10 mM GFX or 3 uM rottlerin)), 2.55±0.43 fold.

In the case of `COc1cccc(-c2cc(=O)c3ccccc3o2)c1N` [PD98059], the “insulin-stimulated VEGF production” value with Medalist fibroblasts [1] (Medalist fibroblasts, 100 nM insulin in presence of 100 nM wortmanin or 10 μM PD98059) is “but not PD98059, significantly inhibited”.

Turning to `CN(C)C[C@@H]1CCn2cc(c3ccccc32)C2=C(C(=O)NC2=O)c2cn(c3ccccc23)CCO1` [RBX, Ruboxistaurin], the “insulin stimulated VEGF secretion” value with Medalist fibroblasts [1] (Medalist fibroblasts, 100 nM insulin with 100 nM RBX) is “failed to increase”.

For `CC(=O)c1c(O)c(C)c(O)c(Cc2c(O)c3c(c(C(=O)/C=C/c4ccccc4)c2O)OC(C)(C)C=C3)c1O` [rottlerin, Rottlerin], the “fold increase in VEGF levels above basal” value with Medalist fibroblasts [1] (Medalist fibroblasts, inhibitor + 100 nM insulin (GFX or 3 uM rottlerin)) is 5.25±0.56 fold; in the assay on Medalist fibroblasts [1] (Medalist fibroblasts, inhibitor alone, no insulin (GFX or 3 uM rottlerin)) it was 3.74±0.49 fold.

Consider TGF-β, for which, in the assay on Medalist fibroblasts [2], the “VEGF induced by TGF-β” value is given as “blunted”.

For insulin, in the assay on control fibroblasts [3], the “increase in VEGF mRNA” value came to 2.4 fold. Also, in the assay on Medalist fibroblasts [4], the “stimulation of VEGF mRNA production” value is “failed to significantly stimulate”. Also, the cell migration in the assay on control fibroblasts [5] is 1.7 fold; in the assay on Medalist fibroblasts [6], “failed to significantly increase”. The “VEGF production, fold” value with control fibroblasts [7] (Ad-GFP infected control fibroblasts, with 100 nM insulin 16 hours) stood at 2.89±0.67 fold. The “increase in VEGF protein levels” value in the assay with control fibroblasts [7] (fibroblasts from controls, 100 nM insulin) is on record as 66%. For the same molecule, the entries for the “p-Tyr of the insulin receptor beta subunit, increase” value in the assay with control fibroblasts [8], in the assay with Medalist fibroblasts [9] (Medalists with CVD) and with Medalist fibroblasts [9] (Medalists without CVD) were 5.2 fold, 4.7 fold and 4.9 fold, respectively. In addition, the results for the “IRS1 tyrosine phosphorylation at site 649 (p-Tyr649), increase” value in the assay on control fibroblasts [10], in the assay with Medalist fibroblasts [11] (setting [14]) and in the assay on Medalist fibroblasts [11] (setting [15]) were 53%, 34% and 63%, respectively. The results for the “IRS1 tyrosine phosphorylation at site 911 (p-Tyr911), increase” value in the assay on control fibroblasts [10], in the assay with Medalist fibroblasts [11] (setting [14]) and in the assay with Medalist fibroblasts [11] (setting [15]) were 52%, 26% and 40%, respectively. Further, in the assay with Medalist fibroblasts [1] (Ad-GFP infected Medalist fibroblasts, with 100 nM insulin 16 hours), the “VEGF secretion, fold increase” value amounted to 1.51±0.18 fold. Further, the “VEGF secretion, fold increase above basal” value in the assay with Medalist fibroblasts [1] (Medalist fibroblasts, insulin alone, siRNA experiment) was determined as 1.28±0.10 fold. The “fold increase in VEGF levels above basal” value in the assay on Medalist fibroblasts [1] (Medalist fibroblasts, 100 nM insulin alone, GFX experiment) stood at 1.59±0.10 fold; with Medalist fibroblasts [1] (Medalist fibroblasts, 100 nM insulin alone, rottlerin experiment), 1.50±0.31 fold. Moreover, the “VEGF protein levels after insulin stimulation” value with Medalist fibroblasts [1] (Medalists with CVD (basal 75.5±13.7)) came out at 106.0±12.0 pg/mg protein; in the assay with Medalist fibroblasts [1] (Medalists without CVD (basal 57.5±8.5)), 99.1±8.4 pg/mg protein. For the same molecule, the “stimulation of VEGF protein” value in the assay on Medalist fibroblasts [1] (fibroblasts from Medalists, 100 nM insulin) is “failed to significantly stimulate”. For the same molecule, the p-AKT increase with control fibroblasts [12] (100 nM insulin 10 minutes (CVD comparison experiment)) is given as 4.0 fold; with Medalist fibroblasts [13] (setting [14]) it was 1.8 fold; in the assay on Medalist fibroblasts [13] (setting [15]), 2.4 fold. Moreover, the “p-AKT increase compared to untreated cells” value amounted to 3.6 fold with control fibroblasts [12] and 2 fold in the assay with Medalist fibroblasts [13].

B1: PDGF-BB: platelet-derived growth factor, 10 ng/ml stimulus (protein, UniProt P01127 82-190, looked up)
Platelet-derived growth …: SLGSLTIAEPAMIAECKTRTEVFEISRRLIDRTNANFLVWPPCVEVQRCSGCCNNRNVQCRPTQVQLRPVQVRKIEIVRKKPIFKKATVTLEDHLACKCETVAAARPVT
modifications: homodimer BB
notes: platelet-derived growth factor, 10 ng/ml stimulus
Consider B1, for which the cell migration result in the assay on control fibroblasts [5] and in the assay on Medalist fibroblasts [6] was “increased cell migration significantly” each time. Further, the “p-AKT increase compared to untreated cells” value with control fibroblasts [12] and with Medalist fibroblasts [13] was 7 fold each time.

The values are drawn from patent US20180066327A1, “Methods to Accelerate Wound Healing in Diabetic Subjects” (Joslin Diabetes Center, Inc., priority 2015, published 2018).
